According to ChEMBL document CHEMBL3232724, “Decreasing acidity in a series of aldose reductase inhibitors: 2-Fluoro-4-(1H-pyrrol-1-yl)phenol as a scaffold for improved membrane permeation” (Bioorg Med Chem, 2014):

Experiments:
[1] = molecular target: Aldo-keto reductase family 1 member B1 (Rattus norvegicus, UniProt P07943); assay: Inhibition of Fischer-344 rat lens ALR2 using D, L-glyceraldehyde as substrate by spectrophotometry; assay type: tissue-based, Lens of camera-type eye
[2] = molecular target: Aldo-keto reductase family 1 member A1 (Rattus norvegicus, UniProt P51635); assay: Inhibition of Fischer-344 rat kidney ALR1 using D-glucuronate as substrate by spectrophotometry
Chain of Aldo-keto reductase family 1 member A1 (P51635 whole entry, looked up): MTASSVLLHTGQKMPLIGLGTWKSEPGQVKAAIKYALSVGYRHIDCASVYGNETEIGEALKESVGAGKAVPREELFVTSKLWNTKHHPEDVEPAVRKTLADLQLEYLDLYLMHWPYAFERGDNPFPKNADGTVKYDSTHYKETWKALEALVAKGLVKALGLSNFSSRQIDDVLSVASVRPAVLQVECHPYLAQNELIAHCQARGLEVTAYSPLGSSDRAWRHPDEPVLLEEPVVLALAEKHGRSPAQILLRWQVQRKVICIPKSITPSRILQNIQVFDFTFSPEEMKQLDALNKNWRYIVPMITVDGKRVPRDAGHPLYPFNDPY

Rattus norvegicus = organism: Rattus norvegicus; assay: Selectivity index, ratio of IC50 for Fischer-344 rat kidney ALR1 to IC50 for Fischer-344 rat lens ALR2; assay type: tissue-based; settings: Lens of camera-type eye
[3] = molecular target: Aldo-keto reductase family 1 member B1 (Rattus norvegicus) (UniProt P07943); assay: Inhibition of Fischer-344 rat lens ALR2 using D, L-glyceraldehyde as substrate at 100 uM by spectrophotometry; assay type: tissue-based; settings: Lens of camera-type eye
[4] = Inhibition of glucose-induced sorbitol accumulation in Wistar rat lens at 10 uM after 3 hrs by fluorescence assay (reference value: 755.27 +/- 19.7 nmol/g); assay type: functional, Lens of camera-type eye
[5] = Inhibition of glucose-induced sorbitol accumulation in Wistar rat lens at 50 uM after 3 hrs by fluorescence assay (reference value: 755.27 +/- 19.7 nmol/g); assay type: functional, Lens of camera-type eye
Jejunum [6] = assay: Apparent permeability coefficient in Sprague-Dawley rat jejunum at 100 uM; assay type: ADME, tissue-based
[7] = Octanol-water distribution coefficient, log D of the compound at pH 7.4 by shake flask method; assay type: physicochemical
[8] = Octanol-water distribution coefficient, log D of the compound at pH 8 by shake flask method; assay type: physicochemical
[9] = Octanol-water distribution coefficient, log D of the compound at pH 8.5 by shake flask method; assay type: physicochemical
[10] = Octanol-water distribution coefficient, log D of the compound at pH 9.2 by shake flask method; assay type: physicochemical
[11] = Octanol-water distribution coefficient, log D of the compound at pH 11 by shake flask method; assay type: physicochemical
[12] = Octanol-water distribution coefficient, log D of the compound at pH 7 by shake flask method; assay type: physicochemical
Jejunum [13] = settings: rat
[14] = Octanol-water distribution coefficient, log D of the compound at pH 7.8 by shake flask method; assay type: physicochemical
[15] = Octanol-water distribution coefficient, log D of the compound at pH 8.25 by shake flask method; assay type: physicochemical
[16] = Octanol-water distribution coefficient, log D of the compound at pH 12 by shake flask method; assay type: physicochemical
Jejunum [17] = assay: Apparent permeability coefficient in Sprague-Dawley rat jejunum at 10 uM; assay type: ADME, tissue-based

O=C(c1ccc(OC(F)(F)F)cc1)c1ccn(-c2ccc(O)c(F)c2)c1
IC50 [1]: 41.7 µM
IC50 [2]: > 100 µM
Ratio IC50 (Rattus norvegicus): > 2.4

COc1cccc(C(=O)c2ccn(-c3ccc(O)c(F)c3)c2)c1
IC50 [1]: 6.75 µM
IC50 [2]: 28.7 µM
Ratio IC50 (Rattus norvegicus): 4.25

O=C(c1ccccc1)c1ccn(-c2ccc(/C=N/O)c([N+](=O)[O-])c2)c1
inhibition [3]: 60.5%

O=C(c1ccccc1)c1ccn(-c2ccc([N+](=O)[O-])c(/C=N/O)c2)c1
inhibition [3]: 36.3%

O=C(c1ccccc1)c1cc(C(=O)C(F)F)n(-c2ccc(O)c(F)c2)c1
IC50 [1]: 0.443 µM
IC50 [2]: 12.1 µM
Ratio IC50 (Rattus norvegicus): 27.3
Activity [4]: 487.07 nmol/g
Activity [5]: 396.89 nmol/g
Papp (Jejunum [6]): 6.4 ucm/s
logD [7]: 3.1
logD [8]: 2.98
logD [9]: 2.62
logD [10]: 1.72
logD [11]: 0.1
logD [12]: 3.41

O=C(c1ccccc1)c1ccn(-c2ccc(/C=N/O)c(O)c2)c1
inhibition [3]: 33.7%

CC(C)NCC(O)COc1cccc2ccccc12 (configuration not stated) [PROPRANOLOL]
Papp (Jejunum [13]): 11.1 ucm/s

O=C(c1ccccc1)c1ccn(-c2cccc(O)c2)c1
inhibition [3]: 21.5%

O=C(c1cccn1-c1ccc(O)c(F)c1)C(F)(F)F
IC50 [1]: 73.8 µM
IC50 [2]: > 100 µM
Ratio IC50 (Rattus norvegicus): > 1.36

O=C(c1ccccc1)c1ccn(-c2ccc(O)c(/C=N/O)c2)c1
inhibition [3]: 35.3%

O=C(c1ccc(-c2ccccc2)cc1)c1ccn(-c2ccc(O)c(F)c2)c1
inhibition [3]: 14.2%

COc1ccc(C(=O)c2ccn(-c3ccc(O)c(F)c3)c2)cc1
IC50 [1]: 9.23 µM
IC50 [2]: 26.2 µM
Ratio IC50 (Rattus norvegicus): 2.84

O=C(c1ccccc1)c1cccn1-c1ccc(O)c(F)c1
inhibition [3]: 37.2%

O=C(c1ccccc1)c1ccn(-c2ccc(O)c(F)c2)c1
IC50 [1]: 10.1 µM
IC50 [2]: 38.2 µM
Ratio IC50 (Rattus norvegicus): 3.79

O=C(c1ccccc1)c1ccn(-c2ccc(O)cc2)c1
IC50 [1]: 55.4 µM
IC50 [2]: > 100 µM
Ratio IC50 (Rattus norvegicus): > 1.8

O=C(c1ccccc1)c1cc(C(=O)C(F)(F)F)n(-c2ccc(O)c(F)c2)c1
IC50 [1]: 1.04 µM
IC50 [2]: 20.4 µM
Ratio IC50 (Rattus norvegicus): 19.6
Activity [4]: 586.08 nmol/g
Activity [5]: 462.49 nmol/g
logD [7]: 3.86
logD [14]: 3.5
logD [8]: 3.6
logD [15]: 3.3
logD [9]: 3.41
logD [10]: 2.48
logD [11]: 0.66
logD [16]: -0.38

COc1ccc(C(=O)c2cccn2-c2ccc(O)c(F)c2)cc1
inhibition [3]: 43.7%

O=C(c1ccn(-c2ccc(O)c(F)c2)c1)c1ccc(Br)cc1F
IC50 [1]: 24.8 µM
IC50 [2]: 35.5 µM
Ratio IC50 (Rattus norvegicus): 1.43

O=C(c1ccccc1)c1ccn(-c2cccc(/C=N/O)c2O)c1
inhibition [3]: 23.5%

O=C(c1ccccc1)c1ccn(-c2ccc(F)c(F)c2)c1
inhibition [3]: 5.81%

O=C1OC2(c3ccc(O)cc3Oc3cc(O)ccc32)c2ccccc21 [FLUORESCEIN]
Papp (Jejunum [17]): 5.2 ucm/s

O=C(c1ccccc1)c1ccn(-c2ccccc2O)c1
inhibition [3]: 16.1%

O=C(c1cccn1-c1ccc(O)c(F)c1)C(F)F
IC50 [1]: 60.8 µM
IC50 [2]: > 100 µM
Ratio IC50 (Rattus norvegicus): > 1.65
